Values joined by “and” are separate entries in the source; they are usually repeats but may differ in a detail not shown here. Equal entries are not always repeated.
Tests used:
[1] = UPLC-MS analysis of RSSH trapping with N-ethylmaleimide; type: physicochemical; details: for RSSH generation (RSS-NEM adduct formation): NEM trap
Procedure: FIGS. 2a and 2b provide graphs of (a) UPLC-MS chromatograms of RSSH generation from 4d (200 μM) in the presence of NEM (4 mM) incubated in pH 7.4 ammonium bicarbonate (100 mM) with DTPA (100 μM) at 37° C. A peak at 3.7 min corresponding to N-ethylmaleamic acid (NEMA), derived from NEM hydrolysis, was observed under these conditions (see SI); (b) MS spectrum (ESI+ mode) of the product eluting at 5.06 min corresponding to 5a with m/z 349.0885 (expected m/z 349.0886).
FIG. 5 provides a graph of UPLC-MS chromatograms of RSSH generation from compound 1 (1 mM) in the presence of NEM (5 mM) incubated in pH 7.4 ammonium bicarbonate buffer containing DTPA (100 μM) for 30 min at 37° C. The asterisk indicates the methyl ester analogue of dialkyl trisulfide 2, which was also formed due to the presence of minor amount of methyl ester analogue of 1. A peak at 3.7 min corresponding to N-ethylmaleamic acid (NEMA), derived from NEM hydrolysis, was observed under these conditions.
RSSH trapping in the presence of N-ethylmaleimide (NEM) was carried out with a Waters Acquity/Xevo-G2 UPLC-MS system equipped with an ACQUITY UPLC BEH C18 column (2.1 mm×50 mm, 1.7 μm). Typically, RSSH precursor (1 eq) was incubated with NEM (5 to 20 eq) in freshly prepared pH 7 4 ammonium bicarbonate buffer (100 mM) containing DTPA (100 μM) at 37° C. An aliquot of the reaction mixture (300 μL) was withdrawn at specified time points, quenched with 0.25% formic acid (300 μL), and filtered through a 0.22 μm filter. The samples were then loaded into vials in an autosampler maintained at 4° C. and analyzed using UPLC-MS as follows: Mobile phase: 0-1 min 90% water+0% ACN+10% formic acid (0.1%); 1-7.5 min gradient up to 10% water+80% ACN+10% formic acid (0.1%); 7.5-8.4 min 10% water+80% ACN+10% formic acid (0.1%); 8.4-8.5 min gradient up to 90% water+0% ACN+10% formic acid (0.1%), 8.5-10 min 90% water+0% ACN+10% formic acid (0.1%). Flow rate=0.3 mL min^−1. The mass signals for products of RSSH trapping with NEM were obtained via deconvolution using MassLynx 4.1 software.
To a solution of NEM (5 mM) in pH 7 4 ammonium bicarbonate (100 mM) with DTPA (100 μM) in a 20-mL scintillation vial, hydropersulfide precursor 1 (1 mM, total reaction volume 3 mL) was added. The resulting mixture was incubated at 37° C. for 30 min. An aliquot of 300 μL reaction mixture was withdrawn, quenched with 300 μL of formic acid (0.25%) and analyzed using UPLC-MS.

[2] = Kinetics of RSSH generation by 1H NMR with NEM trapping; type: physicochemical; details: 10% D2O, 37° C.; for half-life at 1 mM: phosphate buffer, NEM, pH 7.4 buffer, read-out: half-life of precursor; for t1//2 (mm) / Hydropersulfide Yield (%) (RSS-NEM adduct): precursor 1 mM, NEM 20 mM, pH 7.4 phosphate buffer; for Hydropersulfide Yield (%) (RSS-NEM adduct): based upon % precursor consumed
Procedure: FIGS. 3a and 3b provide graphs of (a) Stacked ^1H NMR spectra showing the decomposition of precursor 4d (1 mM) with NEM (20 mM) in 10% D2O, phosphate buffer (PB), pH 7.4 at 37° C. to produce RSS-NEM adduct 5a; Precursor 4d was introduced to a solution of NEM in PB at t=0 min and following equilibration and shimming, the first 1H NMR spectrum was obtained after 6 min.; and (b) The kinetics of decomposition of 4d (circles represent the —CH3 protons (Ha) of the precursor) and formation of 5a (squares represent the diasterotopic protons (Hb) of the succinimide ring of the two product diastereomers).
Next, ^1H NMR spectroscopy was used to monitor the kinetics of RSSH generation from 4d by trapping with NEM in 10% D2O, pH 7.4 buffer containing DMSO as an internal standard at 37° C. An increase in the peak intensity attributed to one of the diasterotopic protons of the succinimide ring of the two product diastereomers (Hb, δ2.99-2.91 ppm) was observed (FIG. 3a). The other diasterotopic proton (Hc, δ3.30-3.21 ppm) overlaps with N-ethylmaleamic acid (NEMA), a product derived from NEM hydrolysis. Similarly, the intensity of two methyl group protons of precursor 4d (δ1.44 and 1.41 ppm) decreased as four methyl group protons of the two diastereomers of 5a (Ha, δ1.40, 1.37 ppm and 1.40, 1.34 ppm) increased, supporting the clean conversion of 4d to 5a. The ^1H NMR peak assignments for 5a are consistent with the RSS-NEM adduct formed during S-methoxycarbonyl penicillamine disulfide (MCPD) decomposition (Scheme 1, eq. 3) in the presence of NEM.
All starting materials were of reagent grade and used without further purification. N-acetyl-D-penicillamine, N-ethylmaleimide, N-ethylmaleamic acid, and phenylcyanamide were purchased from Sigma-Aldrich and used without further purification. Thiourea and N-substituted thioureas were purchased from Alfa Aesar and Oakwood Chemicals. Deuterated solvents (Cambridge Isotope Laboratories) were used for NMR spectroscopic analyses. NMR spectra were obtained on a 400 MHz FT-NMR spectrometer. All chemical shifts are reported in parts per million (ppm) relative to residual CHCl3 (7.26 ppm for ^1H, 77.2 ppm for ^13C), residual H2O (4.79 ppm for ^1H), residual DMSO (2.50 ppm for ^1H, 39.5 for ^13C), or residual MeOH (3.31 ppm for ^1H, 49.2 ppm for ^13C). The kinetics of RSSH generation were measured using a Varian Inova 800 MHz spectrometer. UPLC-MS analysis was carried out with a Waters Acquity/Xevo-G2 UPLC-MS system equipped with an ACQUITY UPLC BEH C18 column (2.1 mm×50 mm, 1.7 μm). The mass signals for products of hydropersulfide trapping with NEM were obtained via deconvolution using MassLynx 4.1 software. The pH measurements were performed using a Fisher Scientific Accumet AB15 pH-meter. Analytical thin layer chromatography (TLC) was performed on Sigma-Aldrich silica gel on TLC A1 foils with fluorescent indicator F254 plates. Visualization was accomplished with UV light (254 nm) or staining with KMnO4. Flash column chromatography was performed using SiliaFlash P60 (230-400 mesh) silica gel. Melting points were recorded using MEL-TEMP® capillary melting point apparatus and are uncorrected.

[3] = as above; type: physicochemical; details: pH 7.4 buffer with 20% MeOD
cardiomyocyte H9c2 cells [4] = assay: Cytoprotection against hydrogen peroxide-induced cytotoxicity; type: cell-based; details: pretreatment 2 h (4d 50 μM; phenyl cyanamide 200 μM), then H2O2 200 μM 2 h, CCK-8
Procedure: (§1) FIGS. 6a and 6b provide graphs of (a) the cell viability of cardiomyocyte H9c2 cells following incubation of the RSSH precursor 4d (50 μM) and phenylcynamide (200 μM) for 24 h; and (b) the cytoprotective effects of the RSSH precursor 4d observed following pretreatment of H9c2 cells with either 4d (50 μM) or phenylcynamide (200 μM) for 2 h, followed by hydrogen peroxide (200 μM) treatment for 2 h. Quantification of cell viability was carried out using Cell Counting Kit-8 (CCK-8). Results are expressed as the mean±SEM (n=6).
Since hydropersulfides are reported to mitigate oxidative stress, the ability of RSSH precursor 4d to protect cardiomyocyte H9c2 cells from cytotoxicity induced by hydrogen peroxide (H2O2) was tested.

cardiomyocyte H9c2 cells [5] = assay: Cytotoxicity / cell viability assay with Cell Counting Kit-8; type: cell-based; details: up to 200 μM, 24 h, CCK-8
Procedure: as §1
The cytotoxicity and impact on cell viability of the hydropersulfide (RSSH) precursor 4d have been examined using the cardiomyocyte H9C2 cell line and Cell Counting Kit-8 (CCK-8). A cell viability assay reveled that 4d was not cytotoxic at 50 μM ([…]).

SMILES	RSSH generation (RSS-NEM adduct formation) ([1]; pH 7.4 buffer, 37° C., UPLC-MS)	melting point	half-life at 1 mM [2]	t1//2 (mm) [2]	Hydropersulfide Yield (%) (RSS-NEM adduct) [2]	other results
CC(=O)NC(CSSC(=N)N)C(=O)O.Cl (centres unmarked) [Precursor 1, ((2-acetamido-2-carboxyethyl)disulfaneyl)(amino)methaniminium chloride]	no evidence of persulfide-NEM adduct formation	70 to 72 °C				disappearance of precursor ([1]; 1 mM with NEM 5 mM, pH 7.4 buffer, 37° C., 30 min): complete disappearance
CC(=O)NC(C(=O)O)C(C)(C)SSC(=N)N.Cl (centres unmarked) [Precursor 4a, ((1-acetamido-1-carboxy-2-methylpropan-2-yl)disulfaneyl)(amino)methaniminium chloride]	formation of RSS-NEM 5a	154 to 156 °C				
CNC(=N)SSC(C)(C)C(NC(C)=O)C(=O)O.Cl (centres unmarked) [Precursor 4b, ((1-acetamido-1-carboxy-2-methylpropan-2-yl)disulfaneyl)(methylamino) methaniminium chloride]	reduced compared with that from 4a	153 to 155 °C				
COC(=O)C(NC(C)=O)C(C)(C)SSC(=N)N.Cl (centres unmarked) [Precursor 4c, ((3-acetamido-4-methoxy-2-methyl-4-oxobutan-2-yl)disulfaneyl)(amino)methaniminium chloride]		190 to 192 °C				RSS-NEM adduct 5b yield ([1]; decomposition in the presence of NEM, UPLC-MS): less than 50%
COc1ccc(NC(=N)SSC(C)(C)C(NC(C)=O)C(=O)O)cc1.Cl (centres unmarked) [Precursor 4e, ((1-acetamido-1-carboxy-2-methylpropan-2-yl)disulfaneyl)((4-methoxyphenyl)amino) methaniminium chloride]		142 to 144 °C	5 min	5.0 ± 0.5 min	75% and 75 ± 2%	
CC(=O)NC(C(=O)O)C(C)(C)SSC(=N)Nc1ccccc1Cl.Cl (centres unmarked) [Precursor 4f, ((1-acetamido-1-carboxy-2-methylpropan-2-yl)disulfaneyl)((2-chlorophenyl)amino) methaniminium chloride]		152 to 154 °C	17.3 min	173 ± 0.4 min	95% and 95 ± 2%	
CC(=O)NC(C(=O)O)C(C)(C)SSC(=N)Nc1ccc(Cl)cc1.Cl (centres unmarked) [Precursor 4g, ((1-acetamido-1-carboxy-2-methylpropan-2-yl)disulfaneyl)((4-chlorophenyl)amino) methaniminium chloride]		143 to 145 °C	9.3 min	9.3 ± 0.6 min	91% and 91 ± 1%	
CC(=O)NC(C(=O)O)C(C)(C)SSC(=N)Nc1ccc(C(F)(F)F)cc1.Cl (centres unmarked) [Precursor 4h, ((1-acetamido-1-carboxy-2-methylpropan-2-yl)disulfaneyl)((4-(trifluoromethyl)phenyl)amino)methaniminium chloride]		151 to 153 °C				Hydropersulfide Yield (%) (RSS-NEM adduct) ([3]; NEM, 37° C.): 95% and 95 ± 2^d %; t1//2 (mm) ([3]; NEM, 37° C.): 6.8 ± 0.2 min; half-life ([3]; pH 7.4, read-out: half-life of precursor): 6.8 min
CC(C)(C)SSC(=N)Nc1ccccc1.Cl [Precursor 9, (t-butyldisulfaneyl)(phenylamino)methaniminium chloride]			17.3 min		97%	
N#CNc1ccccc1 [phenyl cyanamide, reference compound]						cytoprotection from H2O2-induced cytotoxicity (cardiomyocyte H9c2 cells [4]): did not protect; tolerability (cell viability) (cardiomyocyte H9c2 cells [5]): well tolerated
